The results in this text go back to patent US20260022114A1, “N-(5-SUBSTITUTED-[(1,3,4-THIADIAZOLYL) OR (1,3-THIAZOLYL)](SUBSTITUTED)CARBOXAMIDE COMPOUNDS, PHARMACEUTICAL COMPOSITIONS, AND METHODS OF PREPARING THE AMIDE COMPOUNDS AND OF THEIR USE” (Repare Therapeutics Inc., priority 2022, published 2026).

What is called microsomal CLint is the rate of metabolic loss divided by the concentration. Read a high microsomal CLint as rapid turnover. A word on the IC50: it is the concentration that inhibits the measured activity by half.

Some results are limits rather than exact numbers.

A short description of series [1]: Liver microsomal stability assay. The series is classed as in vitro ADME. The following applies: pH 7.4; human liver microsomes, 1 μM compound. On the procedure:
Liver microsomes were thawed on ice prior to use. The incubation mixtures were prepared in 96-well plates and contained test compound or control (1 μM), liver microsomes (0.5 mg of microsomal protein/mL), MgCl2 (5 mM), phosphate buffer (100 mM, pH 7.4), 0.01% DMSO and 1% acetonitrile. A T=0 aliquot was withdrawn after 10 min pre-incubation at 37° C. on a shaker. Reactions were initiated by the addition of NADPH (final concentration of 1 mM) and the plate was kept on a shaker at 37° C., further samples were withdrawn at 5, 15, 30, and 60 minutes. At each timepoint, the reactions were immediately terminated by adding of ice-cold acetonitrile containing internal standard to the withdrawn sample. The extracted samples were centrifuged for 10 minutes at 3200 rpm to pellet the precipitated microsomal protein, and the supernatant was combined 1:1 with water and analyzed by LC-MS/MS. Using the T=0 peak area ratio as 100%, the percentage of parent compound remaining was calculated. For each compound, the In percentage remaining versus incubation time was plotted and the slope of this linear regression (−k) was converted to an in vitro T1/2 value and CLint using the equations below.
In general terms: Microsomes from liver hold many membrane-bound enzymes, among them those of drug oxidation.

Series [2] has as its target T1, CYP3A4 (Homo sapiens (Human), UniProt P08684). Nature of the series: Time-dependent inhibition (TDI), IC50 shift +/-NADPH, human liver microsomes. The series is classed as in vitro ADME. The settings on record: IC50 −NADPH divided by IC50 +NADPH. On the procedure:
Test compound or positive control inhibitors (CYP2C9: Tienilic acid; CYP2D6: paroxetine; CYP3A4: mifepristone) were dissolved in DMSO and a semi-log dilution (up to 50.0 μM) was prepared to 2 incubation plates and normalized for a final DMSO content of 0.5%. Human liver microsomes were diluted at 1 mg/mL with 100 mM potassium phosphate buffer pH 7.4 (1 mM MgCl2) and added to both incubation plates. After pre-incubation at 37° C., the reaction was started with the addition of NADPH (+NADPH condition) or with water (−NADPH condition). Plates were incubated for 30 min and 8 μL were transferred to a second incubation plate containing 72 μL of 1 mM NADPH, 20 μM diclofenac (CYP2C9), 20 μM dextromethorphan (CYP2D6) and 10 μM midazolam (CYP3A4) in 100 mM potassium phosphate buffer pH 7.4 (1 mM MgCl2). Plates were incubated for 10 min and the reaction was stopped by the addition of cold acetonitrile containing internal standard (1:1 v/v). […] Metabolite area ratio (4-OH-diclofenac, dextrorphan and 1-OH-midazolam) versus internal standard area ratio was used as the quantitative signal. Data were analyzed using the plot log of concentration (x axis) versus the percentage of inhibition (y axis) and IC50. Hill Slope and R^2 were determined. The IC50 shift was then calculated by dividing the IC50-NADPH condition by the IC50 obtained in the +NADPH condition.

The target in series [3] is T1, CYP3A4. Nature of the series: Reversible CYP inhibition in human liver microsomes (midazolam). The series is classed as in vitro ADME. On the procedure:
A seven-point semi-log dilution of each test compound (up to 30 μM) or positive control inhibitors for CYP2C9 (up to 1000 nM sulphenazole), CYP2D6 (up to 500 nM quinidine) and CYP3A4 (up to 250 nM ketoconazole) were dissolved in DMSO and added to the incubation plate using a Tecan 300 (normalized for 0.3% DMSO content). Final reaction conditions were: human liver microsomes (0.1 mg/mL), potassium phosphate buffer 100 mM pH 7.4, 1 mM magnesium chloride, 5 μM diclofenac, 5 μM dextromethorphan and 2.5 μM midazolam. After a pre-incubation at 37° C. The reaction was started with the addition of NADPH solution at the final concentration of 1 mM and carried out at 37° C. for 5 minutes. The reaction was stopped by the addition of 1 volume of cold acetonitrile with internal standard (labetalol) to the incubation plate. The incubation plate was centrifuged at 3000 rpm for 10 minutes to precipitate proteins, and the supernatant was analyzed by LC-MS/MS. Metabolite area ratio (4-OH-diclofenac, dextrorphan and 1-OH-midazolam) versus ISTD area ratio was used as the quantitative signal. Data were analyzed using the plot log of concentration (x-axis) versus the percentage of inhibition (y axis) and the IC50, Hill Slope and R^2 were determined.

Another series concerns the target PXR nuclear receptor (Homo sapiens (Human), UniProt O75469). Nature of the series: PXR activation luciferase reporter assay. In kind it is cell-based. The settings on record: 0.03-10 μM test compound; for PXR activation (% Max activity): percentage of the response of Rifampicin at 10 μM; for fold induction at 24 h: versus vehicle-treated cells, read-out: PXR activation (Max fold induction). As to the method:
An expression vector harboring a full-length PXR nuclear receptor plus the appropriate enhancers and promoters linked to the luciferase reporter gene were integrated into the tumor cells. Tumor cells transfected with the species-specific nuclear receptor and the corresponding response elements were seeded in a 96-well plate. Twenty-four hours after seeding, the cells were treated with six distinct concentrations (0.03-10 μM) of the test compound. The cells were then returned to the incubator for an additional 24 h. After this incubation period, the number of viable cells/well were determined using Promega's Cell Titer Fluor cytotoxicity assay. At the end of the assay, Promega's ONE-Glo was added to assess the receptor activation by monitoring reporter gene activity, and by comparing the results to vehicle-treated cells. Activation data were normalized to the number of viable cells/well. Results are expressed as a percentage of the response given by Rifampicin, the positive control, at a 10 μM dose.
In general terms: A reporter such as luciferase makes a cellular process visible.

For series [4], the target named is PolQ ATPase enzyme (1-894) (Homo sapiens (Human), UniProt O75417). Nature of the series: Polθ ATPase enzymatic assay (0.5 nM enzyme concentration), ADP-Glo. The following applies: 0.5 nM PolQ ATPase enzyme (1-894); average IC50. In kind it is biochemical. The gist of the method:
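Human PolQ ATPase domain (1-894), 0.5 nM, preincubated 15 min at rt with 10-point inhibitor series in 50 mM Tris pH 7.5, 10% glycerol, 5 mM DTT, 10 mM MgCl2, 0.1 mg/ml BSA.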

T1 sequence (P08684 whole entry): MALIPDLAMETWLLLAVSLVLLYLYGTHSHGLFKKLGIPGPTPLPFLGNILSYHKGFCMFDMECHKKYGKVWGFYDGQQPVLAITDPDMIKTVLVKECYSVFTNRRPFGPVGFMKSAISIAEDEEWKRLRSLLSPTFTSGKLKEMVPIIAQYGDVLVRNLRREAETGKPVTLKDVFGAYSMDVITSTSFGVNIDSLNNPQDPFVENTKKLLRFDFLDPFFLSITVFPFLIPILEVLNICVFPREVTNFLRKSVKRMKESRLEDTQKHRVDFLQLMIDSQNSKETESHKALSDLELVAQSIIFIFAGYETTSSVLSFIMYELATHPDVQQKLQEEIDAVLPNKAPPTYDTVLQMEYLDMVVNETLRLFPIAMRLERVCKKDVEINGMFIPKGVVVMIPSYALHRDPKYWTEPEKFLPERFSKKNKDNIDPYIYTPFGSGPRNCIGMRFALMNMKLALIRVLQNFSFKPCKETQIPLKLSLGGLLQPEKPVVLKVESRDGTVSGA
Chain of PolQ ATPase enzyme (1-894) (O75417 1-894): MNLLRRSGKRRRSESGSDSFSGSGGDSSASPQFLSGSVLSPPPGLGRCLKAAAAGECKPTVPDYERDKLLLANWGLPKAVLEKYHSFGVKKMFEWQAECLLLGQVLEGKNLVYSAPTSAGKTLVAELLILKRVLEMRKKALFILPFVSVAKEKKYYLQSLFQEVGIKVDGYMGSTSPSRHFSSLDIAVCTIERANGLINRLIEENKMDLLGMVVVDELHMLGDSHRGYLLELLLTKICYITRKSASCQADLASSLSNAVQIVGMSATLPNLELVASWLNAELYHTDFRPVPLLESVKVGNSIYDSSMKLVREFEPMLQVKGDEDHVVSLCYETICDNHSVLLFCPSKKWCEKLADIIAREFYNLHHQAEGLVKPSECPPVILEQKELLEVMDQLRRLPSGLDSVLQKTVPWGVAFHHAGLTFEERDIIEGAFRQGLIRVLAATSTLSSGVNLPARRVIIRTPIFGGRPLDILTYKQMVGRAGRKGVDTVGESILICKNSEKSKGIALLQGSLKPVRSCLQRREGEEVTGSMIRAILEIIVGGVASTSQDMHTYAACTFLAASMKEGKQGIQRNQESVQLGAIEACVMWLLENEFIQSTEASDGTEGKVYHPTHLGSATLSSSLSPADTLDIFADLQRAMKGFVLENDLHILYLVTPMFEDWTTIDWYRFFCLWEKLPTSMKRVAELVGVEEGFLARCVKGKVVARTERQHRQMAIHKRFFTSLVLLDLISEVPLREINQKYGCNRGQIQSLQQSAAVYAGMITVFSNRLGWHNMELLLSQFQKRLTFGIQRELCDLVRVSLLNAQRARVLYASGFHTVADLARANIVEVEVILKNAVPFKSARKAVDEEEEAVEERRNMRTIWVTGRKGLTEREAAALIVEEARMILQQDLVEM
Chain of PXR nuclear receptor (O75469 whole entry): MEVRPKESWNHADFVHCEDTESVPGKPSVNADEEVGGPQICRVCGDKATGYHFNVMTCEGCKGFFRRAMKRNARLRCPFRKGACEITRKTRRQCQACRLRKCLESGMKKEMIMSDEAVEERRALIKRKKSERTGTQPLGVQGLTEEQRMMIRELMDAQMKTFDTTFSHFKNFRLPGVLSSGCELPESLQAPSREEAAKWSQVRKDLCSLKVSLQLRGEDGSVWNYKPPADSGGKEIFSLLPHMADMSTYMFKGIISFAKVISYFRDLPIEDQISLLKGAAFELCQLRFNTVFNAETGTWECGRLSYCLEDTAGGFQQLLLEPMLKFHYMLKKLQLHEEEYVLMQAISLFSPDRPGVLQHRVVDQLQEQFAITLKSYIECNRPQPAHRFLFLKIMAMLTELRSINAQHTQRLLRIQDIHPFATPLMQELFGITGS

On to `COc1cnc(Cl)cc1-c1cnccc1C(=O)Nc1nnc(C#CC2CC2)s1`, for which, in series [1], the microsomal CLint at 1 μM was less than 7.7 µL/min/mg. The “Time-dependent CYP3A4 inhibition-shift after 30 min with NADPH” value at CYP3A4 [2] is recorded as 1x. Further, on CYP3A4 [3], the IC50 is greater than 30000 nM. For the same compound, at PXR nuclear receptor, the “PXR activation (% Max activity)” value came to 5.0% and the fold induction at 24 h was 1.8.

In turn, `COc1ccc(F)cc1-c1cnccc1C(=O)Nc1nnc(C#Cc2ccc(C#N)cc2)s1` [Compound 473] had a microsomal CLint at 1 μM in series [1] of 46.4 µL/min/mg. For the same compound, the “Time-dependent CYP3A4 inhibition-shift after 30 min with NADPH” value at CYP3A4 [2] is listed as 1x. Besides, the IC50 in series [4] came out at 3.5 nM. Also, the 50% inhibitory concentration (IC50) on CYP3A4 [3] was determined as 1110 nM. Also, on PXR nuclear receptor, the “PXR activation (% Max activity)” value is on record as 2.0% and the fold induction at 24 h amounted to 1.3.

In series [4], `COc1cnc(C(F)F)cc1-c1cc(-n2ccc(OC3CCN(C)CC3)cc2=O)ncc1C(=O)Nc1nnc(C#CC2CC2)s1` [Compound 611] came in with an IC50 of 1.2 nM.

Consider `COc1cnc(C(F)F)cc1-c1cc(-n2ccc(N3CC4(COC4)C3)cc2=O)ncc1C(=O)Nc1nnc(C#CC2CC2)s1` [Compound 613], for which the IC50 in series [4] came out at 0.35 nM.

Consider `COc1cnc(C(F)F)cc1-c1cc(-n2ccc(N(C)C3COC3)cc2=O)ncc1C(=O)Nc1nnc(C#CC2CC2)s1` [Compound 614], for which the IC50 in series [4] worked out at 0.4 nM.

Regarding `C#C[C@H]1C[C@@H]1c1nnc(NC(=O)c2cnc(-n3ccc(OC4COC4)cc3=O)cc2-c2cc(C(F)F)ncc2OC)s1` [Compound 617], the IC50 in series [4] is less than 0.25 nM.

Take `COc1cnc(C(F)F)cc1-c1cc(-n2ccc(C)cc2=O)ncc1C(=O)Nc1nnc(COc2cnn(C)c2)s1` [Compound 621]: the half-maximal inhibitory concentration (IC50) in series [4] was 6.3 nM.

The compound `COc1cnc(C(F)F)cc1-c1cc(-n2ccc(C)cc2=O)ncc1C(=O)Nc1nnc([C@H]2C[C@@H]2C(F)F)s1` [Compound 623] came in with an IC50 in series [4] of less than 0.25 nM.

Consider `C#C[C@H]1C[C@@H]1c1nnc(NC(=O)c2cnc(-n3ccc(Cl)cc3=O)cc2-c2cc(C(F)F)ncc2OC)s1` [Compound 624], for which the IC50 in series [4] is 1.1 nM.

Consider `C#C[C@H]1C[C@@H]1c1nnc(NC(=O)c2cnc(-n3ccc(N4CC5(COC5)C4)cc3=O)cc2-c2cc(C(F)F)ncc2OC)s1` [Compound 627], for which, in series [4], the IC50 stood at 0.3 nM.

As for `COc1cnc(C(F)F)cc1-c1cc(C#CCN(C)C)ncc1C(=O)Nc1nnc(C#CC2CC2)s1` [Compound 628], the IC50 in series [4] is less than 0.25 nM.

Take `COc1cnc(C(F)F)cc1-c1cc(C#CCC(C)(C)O)ncc1C(=O)Nc1nnc([C@@H]2C[C@H]2c2ccn(C)n2)s1` [Compound 630]: the IC50 in series [4] stood at 8.5 nM.

In turn, `COc1cnc(C(F)F)cc1-c1cc(C#CCC(C)(C)O)ncc1C(=O)Nc1nnc([C@H]2C[C@@H]2c2ccn(C)n2)s1` [Compound 631] displayed an IC50 in series [4] of 0.93 nM.
